IC50 data for 4 compounds are collected here from BindingDB's records for doi:10.1021/ml2001196 (2011).

SMILES strings stand for the structures.

The nature of assay [1]: Antagonist activity at CRTH2 receptor in human whole blood assessed as inhibition of PGD2-induced eosinophil chemotaxis.
Assay [2] in a line: Antagonist activity at CRTH2 receptor in human whole blood assessed as inhibition of PGD2-induced eosinophil shape change pretreated for 20 mins measured after 1 hr by flow cytometric analysis. In general terms: In flow cytometry, cells or beads pass a laser one at a time.

By IC50 is commonly meant the concentration that inhibits the measured activity by half. As for `CN1C(=O)N(Cc2cc(Cl)ccc2F)C(=O)[C@]12C(=O)N(CC(=O)O)c1ccc(Cl)cc12`, in assay [1], the IC50 was 47 nM.

For the compound `O=C(O)CN1C(=O)[C@@]2(NC(=O)N(Cc3cc(Cl)ccc3F)C2=O)c2cc(Cl)ccc21`, the IC50 came to 7.4 nM in assay [1] and 69 nM in assay [2].

For the compound `CN1C(=O)N(Cc2csc(-c3ccccc3)n2)C(=O)C12C(=O)N(CC(=O)O)c1ccc(Cl)cc12` (stereo unspecified), in assay [2], the half-maximal inhibitory concentration (IC50) was found to be 3940 nM.

`O=C(O)CN1C(=O)[C@@]2(CC(=O)N(Cc3cc(Cl)ccc3F)C2)c2cc(Cl)ccc21` [2-[(3S)-5-chloro-1'-[(5-chloro-2-fluorophenyl)methyl]-1,2-dihydrospiro[indole-3,3'-pyrrolidine]-2,5'-dione]acetic acid]: the figures for the IC50 in assay [1] and in assay [2] were 62 nM and 1800 nM, respectively.
